Test results taken from article PMC7265639, “Freshwater viral metagenome reveals novel and functional phage-borne antibiotic resistance genes” (Microbiome, 2020).
Converted amounts (≈) assume the structure as drawn.

How the values were obtained:
[1] = test system: T1, E. coli BL21 (DE3)-pET-28a(+)-HRVM-1; assay: microbe, parasite or virus in culture; set-up: species or system Escherichia coli BL21 (DE3) transformants; agar dilution MIC on Mueller-Hinton agar with 1 mM IPTG; settings: Escherichia coli, read-out: MIC (μg/mL) for E. coli strain / E. coli BL21 (DE3)-pET-28a(+)-HRVM-1
T1 construct: BL21 (DE3) pET-28a(+)/blaHRVM-1-His6 transformant expressing HRVM-1 metallo-beta-lactamase
Description: (§1) When cultures of the cloned E. coli BL21 (DE3) cells reached approximately 0.6 at OD600, 1 mM isopropyl β-D-1-thiogalactopyranoside was added to induce expression of the blaHRV-1 or blaHRVM-1 gene followed by culture at 16 °C for 16 h. Susceptibility to benzylpenicillin, ampicillin, piperacillin, ticarcillin, oxacillin, cloxacillin, cephalothin, cefoxitin, cefotaxime, ceftazidime, cefepime, aztreonam, meropenem, imipenem (Sigma-Aldrich), and ertapenem (Merck & Co., Inc, Kenilworth, NJ, USA) against cloned E. coli BL21 (DE3) was assessed using the agar dilution technique in Mueller-Hinton agar (Difco Laboratories Inc., Detroit, MI, USA) including 1 mM IPTG with an inoculum of 10^5 CFU per spot. The PCR products were double-digested with NdeI and XhoI for the HRV-1 and NcoI and XhoI for the HRVM-1, and the digested DNAs were cloned into corresponding restriction enzyme-digested pET-28a(+) or pET-30a(+) vectors (Novagen, Madison, WI, USA). Recombinant plasmids [pET-30a(+)/blaHRV-1-His6 and pET-28a(+)/blaHRVM-1-His6] were transformed into E. coli BL21 (DE3) (Invitrogen, Carlsbad, CA, USA).

[2] = test system: T2, E. coli BL21 (DE3)-pET-30a(+)-HRV-1; assay: microbe, parasite or virus in culture; set-up: species or system Escherichia coli BL21 (DE3) transformants; agar dilution MIC on Mueller-Hinton agar with 1 mM IPTG; settings: Escherichia coli, HRV1, read-out: MIC (μg/mL) for E. coli strain / E. coli BL21 (DE3)-pET-30a(+)-HRV-1
T2 construct: BL21 (DE3) pET-30a(+)/blaHRV-1-His6 transformant expressing HRV-1 beta-lactamase
Description: as §1

[3] = test system: T3, HRV-1; assay: UV spectrophotometric beta-lactam hydrolysis, steady-state kinetics; type: biochemical; settings: 10 mM MES pH 6.8, 30 °C, 20 μg/mL BSA
T3 construct: gene blaHRV-1; expressed in E. coli BL21(DE3) from pET-30a(+)/blaHRV-1-His6 (NdeI/XhoI); His6 tag removal by enterokinase stated; purified

[4] = test system: T4, HRVM-1; assay: as above; type: biochemical; settings: 50 mM MES pH 7.0, 100 μM ZnCl2, 100 μg/mL BSA, 30 °C
T4 construct: gene blaHRVM-1; expressed in E. coli BL21(DE3) from pET-28a(+)/blaHRVM-1-His6 (NcoI/XhoI); His6 tag removal by enterokinase stated; purified
Source text: UV spectrophotometric beta-lactam hydrolysis, steady-state kinetics on HRVM-1 | the kcat/km of HRVM-1 for imipenem

| Compound | MIC [1] | MIC [2] | Km [3] | Km [4] |
| --- | --- | --- | --- | --- |
| CC1(C)S[C@@H]2[C@H](NC(=O)[C@H](N)c3ccccc3)C(=O)N2[C@H]1C(=O)O [Ampicillin] | 32 µg/mL (≈ 91.6 µM) | 64 µg/mL (≈ 183 µM) |  |  |
| CO/N=C(\C(=O)N[C@@H]1C(=O)N2C(C(=O)O)=C(COC(C)=O)CS[C@H]12)c1csc(N)n1 [cefotaxime] | 8 µg/mL (≈ 17.6 µM) | 8 µg/mL (≈ 17.6 µM) | 11.74 ± 0.01 µM |  |
| C[C@H]1[C@H](NC(=O)/C(=N\OC(C)(C)C(=O)O)c2csc(N)n2)C(=O)N1S(=O)(=O)O [Aztreonam] | 8 µg/mL (≈ 18.4 µM) | 8 µg/mL (≈ 18.4 µM) |  |  |
| CO[C@@]1(NC(=O)Cc2cccs2)C(=O)N2C(C(=O)O)=C(COC(N)=O)CS[C@@H]21 [Cefoxitin] | 4 µg/mL (≈ 9.36 µM) | 4 µg/mL (≈ 9.36 µM) |  |  |
| CC(C)(O/N=C(\C(=O)N[C@@H]1C(=O)N2C(C(=O)[O-])=C(C[n+]3ccccc3)CS[C@H]12)c1csc(N)n1)C(=O)O [ceftazidime] | 8 µg/mL (≈ 14.6 µM) | 8 µg/mL (≈ 14.6 µM) | 12.15 ± 0.02 µM |  |
| C[C@@H](O)[C@H]1C(=O)N2C(C(=O)O)=C(SCCN=CN)C[C@H]12 [imipenem] | 0.5 µg/mL (≈ 1.67 µM) | 0.5 µg/mL (≈ 1.67 µM) |  | 5.42 ± 0.01 µM |
| C[C@@H](O)[C@H]1C(=O)N2C(C(=O)O)=C(S[C@@H]3CN[C@H](C(=O)N(C)C)C3)[C@H](C)[C@H]12 [Meropenem] | 0.5 µg/mL (≈ 1.3 µM) | 0.5 µg/mL (≈ 1.3 µM) |  |  |
| CO/N=C(\C(=O)N[C@@H]1C(=O)N2C(C(=O)[O-])=C(C[N+]3(C)CCCC3)CS[C@H]12)c1csc(N)n1 [Cefepime] | 4 µg/mL (≈ 8.32 µM) | 4 µg/mL (≈ 8.32 µM) |  |  |
| C[C@@H](O)[C@H]1C(=O)N2C(C(=O)O)=C(S[C@@H]3CN[C@H](C(=O)Nc4cccc(C(=O)O)c4)C3)[C@H](C)[C@H]12 [Ertapenem] | 0.5 µg/mL (≈ 1.05 µM) | 0.5 µg/mL (≈ 1.05 µM) |  |  |
| CCN1CCN(C(=O)N[C@@H](C(=O)N[C@@H]2C(=O)N3[C@@H]2SC(C)(C)[C@@H]3C(=O)O)c2ccccc2)C(=O)C1=O [Piperacillin] | 32 µg/mL (≈ 61.8 µM) | 64 µg/mL (≈ 124 µM) |  |  |
| Cc1onc(-c2ccccc2)c1C(=O)N[C@@H]1C(=O)N2[C@@H]1SC(C)(C)[C@@H]2C(=O)O [Oxacillin] | 128 µg/mL (≈ 319 µM) | 256 µg/mL (≈ 638 µM) |  |  |
| CC1(C)S[C@@H]2[C@H](NC(=O)Cc3ccccc3)C(=O)N2[C@H]1C(=O)O [Benzylpenicillin] | 256 µg/mL (≈ 766 µM) | 512 µg/mL (≈ 1530 µM) |  |  |
| CC1(C)S[C@@H]2[C@H](NC(=O)[C@H](C(=O)O)c3ccsc3)C(=O)N2[C@H]1C(=O)O [Ticarcillin] | 32 µg/mL (≈ 83.2 µM) | 32 µg/mL (≈ 83.2 µM) |  |  |
| CC(=O)OCC1=C(C(=O)O)N2C(=O)[C@@H](NC(=O)Cc3cccs3)[C@H]2SC1 [Cephalothin] | 32 µg/mL (≈ 80.7 µM) | 32 µg/mL (≈ 80.7 µM) |  |  |
| Cc1onc(-c2ccccc2Cl)c1C(=O)N[C@@H]1C(=O)N2[C@@H]1SC(C)(C)[C@@H]2C(=O)O [Cloxacillin] | 128 µg/mL (≈ 294 µM) | 256 µg/mL (≈ 587 µM) |  |  |
